{"source": "patent US4745124A", "about": "“Orally effective anti-hypertensive agents” (priority 1983, dated 1988)", "key": {"[1]": {"molecular_target": "T1, angiotensin converting enzyme (human urinary ACE) (Homo sapiens, UniProt P12821)", "T1 construct": "ACE purified from human urine; from tissue; host or cells: human urine (ultrafiltration and Sephacryl S-200, first eluting peak; prepared as in Ryan et al., Tissue and Cell 10, 555 (1978))", "T1 sequence (P12821 30-1232 limits assumed)": "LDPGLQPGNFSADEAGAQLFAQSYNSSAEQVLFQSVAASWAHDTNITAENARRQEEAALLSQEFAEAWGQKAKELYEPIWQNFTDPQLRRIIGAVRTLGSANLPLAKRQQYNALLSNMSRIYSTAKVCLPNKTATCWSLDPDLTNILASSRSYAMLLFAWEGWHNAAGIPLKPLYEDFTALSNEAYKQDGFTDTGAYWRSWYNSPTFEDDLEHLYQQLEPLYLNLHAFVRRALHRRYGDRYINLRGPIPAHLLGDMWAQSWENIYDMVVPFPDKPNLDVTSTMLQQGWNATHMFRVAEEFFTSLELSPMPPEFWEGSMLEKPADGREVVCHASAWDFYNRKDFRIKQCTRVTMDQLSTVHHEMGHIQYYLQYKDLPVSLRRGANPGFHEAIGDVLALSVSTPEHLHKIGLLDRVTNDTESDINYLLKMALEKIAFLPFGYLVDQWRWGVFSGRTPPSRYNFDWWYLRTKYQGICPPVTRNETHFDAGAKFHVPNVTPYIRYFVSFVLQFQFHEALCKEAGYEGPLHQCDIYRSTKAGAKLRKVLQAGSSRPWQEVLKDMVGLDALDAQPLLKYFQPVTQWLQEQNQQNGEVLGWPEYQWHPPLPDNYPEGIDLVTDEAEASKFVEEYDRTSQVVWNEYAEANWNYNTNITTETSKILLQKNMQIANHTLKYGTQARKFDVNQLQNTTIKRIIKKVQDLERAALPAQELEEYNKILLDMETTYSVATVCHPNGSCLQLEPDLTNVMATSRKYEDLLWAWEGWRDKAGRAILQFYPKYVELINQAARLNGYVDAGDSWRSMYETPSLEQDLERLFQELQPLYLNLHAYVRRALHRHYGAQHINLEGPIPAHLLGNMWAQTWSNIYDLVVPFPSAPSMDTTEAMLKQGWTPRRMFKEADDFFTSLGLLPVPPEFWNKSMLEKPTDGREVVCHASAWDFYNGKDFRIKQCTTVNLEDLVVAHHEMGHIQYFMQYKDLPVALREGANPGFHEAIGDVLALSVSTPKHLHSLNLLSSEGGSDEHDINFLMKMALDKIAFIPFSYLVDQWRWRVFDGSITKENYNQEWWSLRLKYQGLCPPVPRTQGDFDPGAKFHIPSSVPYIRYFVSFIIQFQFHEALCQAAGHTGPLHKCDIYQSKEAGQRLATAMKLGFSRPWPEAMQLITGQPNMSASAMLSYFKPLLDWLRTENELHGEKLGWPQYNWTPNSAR", "assay": "ACE activity assay, I50 (Example 216A)", "assay_type": "biochemical", "settings": "human urinary ACE; Benzoyl-GlyHisLeu 1×10^-4 M; Hepes pH 8.0; 37° C; in vitro; read-out: I50"}, "[2]": {"tested_on": "pressor effects of angiotensin I", "assay": "oral effectiveness: blood pressure response to angiotensin I in anesthetized rats", "assay_type": "in vivo, rat", "settings": "for Blood pressure response to angiotensin I (% of control): oral 10 mg, Ex. 225; for Blood Pressure Response to 400 ng/kg of Angiotensin I: oral 17 μmol/kg, Ex. 228", "how_it_was_run": "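Fasted rats under pentobarbital anesthesia (50-60 mg/kg i.p.), ventilated, with carotid arterial pressure recorded; i.v. angiotensin I (80 ng, 160 ng or 400 ng/kg) or angiotensin II (80 ng) challenges repeated at timed intervals after oral gavage of compound (2-20 mg/kg, 10 mg, 17 or 23 μmol/kg) in aqueous NaHCO3.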"}, "[3]": {"assay": "resistance of thioester compounds to alkaline hydrolysis", "assay_type": "physicochemical", "source_text": "Therefore the observed inhibitory effects cannot be accounted for by postulating spontaneous hydrolysis of the thioester bond to regenerate the free sulfhydryl group."}, "[4]": {"tested_on": "pressor effects of angiotensin II", "assay": "oral: blood pressure response to angiotensin II in anesthetized rats", "assay_type": "in vivo, rat", "settings": "12 or 20 mg/kg", "protocol": "Rats (210-290 g body weight) were fasted overnight and then anesthetized with intraperitoneal pentobarbital, 50-60 mg/kg. Tracheostomy was performed and the animals were ventilated mechanically. A cannula was inserted into a femoral vein for injection of angiotensin I or II, and a second cannula was inserted into a common carotid artery for direct measurement of arterial blood pressure. Heparin, 1,000 units, was injected via the femoral vein to prevent coagulation. Blood pressure was measured with a pressure transducer connected to a polygraph. The rats were injected with 80 ng of angiotensin I or angiotensin II in 20 μl of 0.9 g % NaCl; an amount of antiotensin I or II sufficient to raise mean arterial blood pressure by 27-40 mm Hg. After the responsiveness of a given rat to angiotensins I and II was established, compound (I), at 2 or 5 mg/kg (drug dissolved in 0.5 ml of H2 O plus 10 μl of 1N NaHCO3), was given via a stomach tube. At timed intervals, the effects of 80 ng of angiotensin I or angiotensin II on mean arterial blood pressure were tested.\nRats were prepared as described in Example 222. Compound (II) [N-benzoyl-L-phenylalanylthiopropanoyl)-L-proline] was given orally, via a stomach tube, at a dose of 12 mg/kg or 20 mg/kg. Compound (II) was dissolved in 0.5 ml of H2 O plus 10 μl of 1N NaHCO3. […]"}, "[5]": {"tested_on": "pressor effects of angiotensin I", "assay": "intravenous effectiveness: blood pressure response to angiotensin I in anesthetized rats", "assay_type": "in vivo, rat", "settings": "i.v. 2 μmol/kg, Ex. 229", "protocol": "(§1) Anesthetized rats were prepared as described in Example 228. After the responsiveness of a given rat to angiotensin I was established, the named compound at 2 μmol/kg, in a volume of 15 μl of 0.01N sodium bicarbonate, was injected via a femoral vein. At timed intervals, the effects of angiotensin I, 400 ng/kg, on mean arterial blood pressure were tested. Results are shown below:\nas §1, with “231.” for “228.”, “compound,” for “compound”\nAnesthetized rats were prepared as described in Example 239. The animals were administered the named compound via a femoral vein in 15 μl of 0.01N sodium bicarbonate, after the control response to 400 ng/kg of angiotensin I was measured. […] The time required for recovery of one half of the lost responsiveness to angiotensin I, following injection of the named compound, was designated t1/2. […] Results are shown for two dose levels:\nAnesthetized rats were prepared as described in Example 242. The named compound was administered intravenously via a femoral vein, at the stated dose, in 15 μl of 0.01N sodium bicarbonate. The response to intravenous administration was a rapid decrease in responsiveness to Angtiotensin I, 400 ng/kg, followed by a gradual recovery to the pretreatment level of responsiveness. The time required for recovery of one half the lost responsiveness to angiotensin I, following injection of the named compound, is designated t1/2. […] Results are shown for the three dose levels:\nThe intravenous effectiveness of the named compound was examined by following the procedure described in Example 244 except that 1 μmole/kg of the drug was given intravenously. The results are shown below:\nThe intravenous effectiveness of the named compound was examined by following the procedure described in Example 246 except that 1 μmole/Kg of the drug was given intravenously."}}, "note": "“And” between values parts separate entries of the source, which are not always exact repeats. Equal entries are not always repeated.", "data": [{"compound": "CC(SC(=O)C(Cc1ccccc1)NC(=O)c1ccccc1)C(=O)N1CC=C[C@H]1C(=O)O", "note": "(stereo partly drawn) [(B), N-(2-benzoylphenylalanylthiopropanoyl)-L-3,4-dehydroproline]", "values": [{"measurement": "IC50", "setting": "[1]", "value": 3, "unit": "nM"}, {"measurement": "Blood pressure response to angiotensin I (% of control)", "setting": "[2]; 3 min", "value": 100, "unit": "%"}, {"measurement": "Blood pressure response to angiotensin I (% of control)", "setting": "[2]; 9 min", "value": 81, "unit": "%"}, {"measurement": "Blood pressure response to angiotensin I (% of control)", "setting": "[2]; 14 min", "value": 74, "unit": "%"}, {"measurement": "Blood pressure response to angiotensin I (% of control)", "setting": "[2]; 24 min", "value": 74, "unit": "%"}, {"measurement": "Blood pressure response to angiotensin I (% of control)", "setting": "[2]; 28 min", "value": 74, "unit": "%"}, {"measurement": "Blood pressure response to angiotensin I (% of control)", "setting": "[2]; 34 min", "value": 63, "unit": "%"}, {"measurement": "Blood pressure response to angiotensin I (% of control)", "setting": "[2]; 44 min", "value": 56, "unit": "%"}, {"measurement": "Blood pressure response to angiotensin I (% of control)", "setting": "[2]; 54 min", "value": 44, "unit": "%"}, {"measurement": "Blood pressure response to angiotensin I (% of control)", "setting": "[2]; 64 min", "value": 56, "unit": "%"}, {"measurement": "Blood pressure response to angiotensin I (% of control)", "setting": "[2]; 85 min", "value": 37, "unit": "%"}, {"measurement": "Blood pressure response to angiotensin I (% of control)", "setting": "[2]; 94 min", "value": 44, "unit": "%"}, {"measurement": "Blood pressure response to angiotensin I (% of control)", "setting": "[2]; 104 min", "value": 74, "unit": "%"}, {"measurement": "Blood pressure response to angiotensin I (% of control)", "setting": "[2]; 114 min", "value": 56, "unit": "%"}, {"measurement": "Blood pressure response to angiotensin I (% of control)", "setting": "[2]; 146 min", "value": 100, "unit": "%"}]}, {"compound": "CC(SC(=O)C(Cc1ccccc1)NC(=O)c1ccccc1)C(=O)N1CCC[C@H]1C(=O)O", "note": "(stereo partly drawn) [Compound (II), 2-benzoylphenylalanylthiopropanoyl-L-proline]", "values": [{"measurement": "IC50", "setting": "[1]", "value": "70 nM and 40 nM"}, {"measurement": "resistance to alkaline hydrolysis", "setting": "[3]", "value": "surprisingly resistant to alkaline hydrolysis"}, {"measurement": "Blood Pressure Response to 80 ng of Angiotensin I", "setting": "[2]; oral 12 mg/kg, 6 min, Rat 1", "value": "109 % of control"}, {"measurement": "Blood Pressure Response to 80 ng of Angiotensin I", "setting": "[2]; oral 12 mg/kg, 12 min, Rat 1", "value": "80 % of control"}, {"measurement": "Blood Pressure Response to 80 ng of Angiotensin I", "setting": "[2]; oral 12 mg/kg, 30 min, Rat 1", "value": "51 % of control"}, {"measurement": "Blood Pressure Response to 80 ng of Angiotensin I", "setting": "[2]; oral 12 mg/kg, 47 min, Rat 1", "value": "71 % of control"}, {"measurement": "Blood Pressure Response to 80 ng of Angiotensin I", "setting": "[2]; oral 12 mg/kg, 56 min, Rat 1", "value": "69 % of control"}, {"measurement": "Blood Pressure Response to 80 ng of Angiotensin I", "setting": "[2]; oral 12 mg/kg, 76 min, Rat 1", "value": "63 % of control"}, {"measurement": "Blood Pressure Response to 80 ng of Angiotensin I", "setting": "[2]; oral 12 mg/kg, 150 min, Rat 1", "value": "49 % of control"}, {"measurement": "Blood Pressure Response to 80 ng of Angiotensin I", "setting": "[2]; oral 12 mg/kg, 158 min, Rat 1", "value": "57 % of control"}, {"measurement": "Blood Pressure Response to 80 ng of Angiotensin I", "setting": "[2]; oral 20 mg/kg, 6 min, Rat 2", "value": "91 % of control"}, {"measurement": "Blood Pressure Response to 80 ng of Angiotensin I", "setting": "[2]; oral 20 mg/kg, 12 min, Rat 2", "value": "70 % of control"}, {"measurement": "Blood Pressure Response to 80 ng of Angiotensin I", "setting": "[2]; oral 20 mg/kg, 23 min, Rat 2", "value": "76 % of control"}, {"measurement": "Blood Pressure Response to 80 ng of Angiotensin I", "setting": "[2]; oral 20 mg/kg, 30 min, Rat 2", "value": "76 % of control"}, {"measurement": "Blood Pressure Response to 80 ng of Angiotensin I", "setting": "[2]; oral 20 mg/kg, 56 min, Rat 2", "value": "55 % of control"}, {"measurement": "Blood Pressure Response to 80 ng of Angiotensin I", "setting": "[2]; oral 20 mg/kg, 76 min, Rat 2", "value": "40 % of control"}, {"measurement": "Blood Pressure Response to 80 ng of Angiotensin I", "setting": "[2]; oral 20 mg/kg, 95 min, Rat 2", "value": "40 % of control"}, {"measurement": "Blood Pressure Response to 80 ng of Angiotensin I", "setting": "[2]; oral 20 mg/kg, 142 min, Rat 2", "value": "76 % of control"}, {"measurement": "Blood Pressure Response to 80 ng of Angiotensin I", "setting": "[2]; oral 20 mg/kg, 158 min, Rat 2", "value": "76 % of control"}, {"measurement": "Blood Pressure Response to 80 ng of Angiotensin I", "setting": "[2]; oral 20 mg/kg, 166 min, Rat 2", "value": "76 % of control"}, {"measurement": "Blood Pressure Response to 80 ng of Angiotensin I", "setting": "[2]; oral 20 mg/kg, 176 min, Rat 2", "value": "76 % of control"}, {"measurement": "pressor effects of angiotensin II (specificity)", "setting": "[4]", "value": "did not inhibit"}]}, {"compound": "C[C@H](CSC(=O)[C@H](Cc1ccccc1)NC(=O)[C@H](CCCCN)NC(=O)C1CCCC1)C(=O)N1CCC[C@H]1C(=O)O", "note": "[N-alpha-[3-(N-alpha-cyclopentylcarbonyl-L-lysyl-L-phenylalanylthio)-2-D-methylpropanoyl]-L-proline]", "values": [{"measurement": "IC50", "setting": "[1]", "value": 15, "unit": "nM"}, {"measurement": "Blood Pressure Response to 400 ng/kg of Angiotensin I", "setting": "[2]; 5 min", "value": "59 % of Control"}, {"measurement": "Blood Pressure Response to 400 ng/kg of Angiotensin I", "setting": "[2]; 10 min", "value": "44 % of Control"}, {"measurement": "Blood Pressure Response to 400 ng/kg of Angiotensin I", "setting": "[2]; 15 min", "value": "44 % of Control"}, {"measurement": "Blood Pressure Response to 400 ng/kg of Angiotensin I", "setting": "[2]; 31 min", "value": "44 % of Control"}, {"measurement": "Blood Pressure Response to 400 ng/kg of Angiotensin I", "setting": "[2]; 37 min", "value": "38 % of Control"}, {"measurement": "Blood Pressure Response to 400 ng/kg of Angiotensin I", "setting": "[2]; 45 min", "value": "44 % of Control"}, {"measurement": "Blood Pressure Response to 400 ng/kg of Angiotensin I", "setting": "[2]; 55 min", "value": "44 % of Control"}, {"measurement": "Blood Pressure Response to 400 ng/kg of Angiotensin I", "setting": "[2]; 81 min", "value": "36 % of Control"}, {"measurement": "Blood Pressure Response to 400 ng/kg of Angiotensin I", "setting": "[2]; 93 min", "value": "36 % of Control"}, {"measurement": "Blood Pressure Response to 400 ng/kg of Angiotensin I", "setting": "[2]; 104 min", "value": "38 % of Control"}, {"measurement": "Blood Pressure Response to 400 ng/kg of Angiotensin I", "setting": "[5]; 3 min", "value": "8 % of Control"}, {"measurement": "Blood Pressure Response to 400 ng/kg of Angiotensin I", "setting": "[5]; 9 min", "value": "15 % of Control"}, {"measurement": "Blood Pressure Response to 400 ng/kg of Angiotensin I", "setting": "[5]; 14 min", "value": "23 % of Control"}, {"measurement": "Blood Pressure Response to 400 ng/kg of Angiotensin I", "setting": "[5]; 19 min", "value": "23 % of Control"}, {"measurement": "Blood Pressure Response to 400 ng/kg of Angiotensin I", "setting": "[5]; 24 min", "value": "33 % of Control"}, {"measurement": "Blood Pressure Response to 400 ng/kg of Angiotensin I", "setting": "[5]; 37 min", "value": "41 % of Control"}, {"measurement": "Blood Pressure Response to 400 ng/kg of Angiotensin I", "setting": "[5]; 45 min", "value": "46 % of Control"}, {"measurement": "Blood Pressure Response to 400 ng/kg of Angiotensin I", "setting": "[5]; 54 min", "value": "46 % of Control"}, {"measurement": "Blood Pressure Response to 400 ng/kg of Angiotensin I", "setting": "[5]; 77 min", "value": "46 % of Control"}, {"measurement": "Blood Pressure Response to 400 ng/kg of Angiotensin I", "setting": "[5]; 87 min", "value": "51 % of Control"}]}]}
